Drawing on patent publication US20160376240A1, “6 Phenyl or 6 Pyridin 3 YL Indazole Derivatives and Methods of Use” (ABBVIE INC., priority 2014, published 2016), this text covers IC50 for 22 molecules.

For this assay, the target named is T1, TrkA (Homo sapiens, UniProt P04629).
T1 construct: purchased Invitrogen PV3144
Briefly: TrkA kinase inhibition, HTRF assay. The assay is classed as biochemical. The conditions noted are these: LCK peptide substrate 125 nM, TrkA 2-10 nM pre-incubated with ATP 200 μM. An outline of the steps:
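TrkA (2-10 nM) preactivated 20 min with 200 μM ATP in HEPES pH 7.4 with Mg2+/Mn2+, then compound for 10 min, then 125 nM biotinylated LCK-peptide for 1 h at ambient temperature. HTRF 665/620 ratio read; IC50 fitted from initial-rate percent inhibition.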
On the technique in general: In TR-FRET formats the signal depends on donor and acceptor labels being close together.

T1 sequence (P04629 33-796): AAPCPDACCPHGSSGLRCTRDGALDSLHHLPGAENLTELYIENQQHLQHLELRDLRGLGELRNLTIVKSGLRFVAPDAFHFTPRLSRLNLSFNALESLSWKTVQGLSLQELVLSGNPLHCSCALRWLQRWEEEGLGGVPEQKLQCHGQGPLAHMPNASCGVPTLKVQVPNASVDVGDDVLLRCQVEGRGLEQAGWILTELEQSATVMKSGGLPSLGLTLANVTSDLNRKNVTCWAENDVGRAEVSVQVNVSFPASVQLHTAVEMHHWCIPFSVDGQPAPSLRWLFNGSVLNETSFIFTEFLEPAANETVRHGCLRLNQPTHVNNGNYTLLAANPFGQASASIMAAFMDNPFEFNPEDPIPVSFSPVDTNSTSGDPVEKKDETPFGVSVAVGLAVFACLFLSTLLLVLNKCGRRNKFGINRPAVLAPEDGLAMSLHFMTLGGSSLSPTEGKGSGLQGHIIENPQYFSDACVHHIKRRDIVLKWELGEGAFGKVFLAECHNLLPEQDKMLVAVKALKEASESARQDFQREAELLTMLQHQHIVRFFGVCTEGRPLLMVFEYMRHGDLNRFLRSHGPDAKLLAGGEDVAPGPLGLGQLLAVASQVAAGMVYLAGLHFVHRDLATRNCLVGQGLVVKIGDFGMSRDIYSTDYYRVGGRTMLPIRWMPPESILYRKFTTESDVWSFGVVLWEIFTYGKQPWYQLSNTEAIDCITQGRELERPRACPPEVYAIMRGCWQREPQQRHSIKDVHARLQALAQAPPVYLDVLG

One may read the IC50 as the concentration at which inhibition is half-maximal. Lower therefore signals inhibition by little substance. `CNC(=O)c1ccc(-c2cc(OC3CCOCC3)c3c(C)n[nH]c3c2)cc1N1CCN(S(=O)(=O)c2ccc(C)cc2)CC1` [Example 152, N-methyl-2-{4-[(4-methylphenyl)sulfonyl]piperazin-1-yl}-4-[3-methyl-4-(tetrahydro-2H-pyran-4-yloxy)-1H-indazol-6-yl]benzamide] yielded an IC50 of 7.48 nM.
In the case of `CNC(=O)c1ccc(-c2cc(OC3CCOCC3)c3c(C)n[nH]c3c2)cc1N1CCN(C(=O)OC)CC1` [Example 153, methyl 4-{2-(methylcarbamoyl)-5-[3-methyl-4-(tetrahydro-2H-pyran-4-yloxy)-1H-indazol-6-yl]phenyl}piperazine-1-carboxylate] it was 9.12 nM.
For the molecule `CNC(=O)c1ccc(-c2cc(OC3CCOCC3)c3c(C)n[nH]c3c2)cc1N1CCN(Cc2cccc(F)c2)CC1` [Example 154, 2-[4-(3-fluorobenzyl)piperazin-1-yl]-N-methyl-4-[3-methyl-4-(tetrahydro-2H-pyran-4-yloxy)-1H-indazol-6-yl]benzamide], 15.9 nM corresponded to half-maximal inhibition (IC50).
In the case of `CNC(=O)c1ccc(-c2cc(OC3CCOCC3)c3c(C)n[nH]c3c2)cc1N1CCN(C(=O)NC(C)C)CC1` [Example 155, N-isopropyl-4-{2-(methylcarbamoyl)-5-[3-methyl-4-(tetrahydro-2H-pyran-4-yloxy)-1H-indazol-6-yl]phenyl}piperazine-1-carboxamide] it was 2.27 nM; in that of `Cc1n[nH]c2cc(-c3ccc(C#N)c(N4CCN(CC(F)(F)F)CC4)c3)cc(OC3CCOCC3)c12` [Example 156, 4-[3-methyl-4-(tetrahydro-2H-pyran-4-yloxy)-1H-indazol-6-yl]-2-[4-(2,2,2-trifluoroethyl)piperazin-1-yl]benzonitrile], 29.1 nM; in that of `Cc1n[nH]c2cc(-c3ccc(C(N)=O)c(N4CCN(CC(F)(F)F)CC4)c3)cc(OC3CCOCC3)c12` [Example 157, 4-[3-methyl-4-(tetrahydro-2H-pyran-4-yloxy)-1H-indazol-6-yl]-2-[4-(2,2,2-trifluoroethyl)piperazin-1-yl]benzamide], 22.7 nM.
On to `CCc1n[nH]c2cc(-c3ccc(C(=O)NC)c(N4CCN(C(=O)OC(C)(C)C)CC4)c3)cc(OC3CCOCC3)c12` [Example 158, tert-butyl 4-{5-[3-ethyl-4-(tetrahydro-2H-pyran-4-yloxy)-1H-indazol-6-yl]-2-(methylcarbamoyl)phenyl}piperazine-1-carboxylate], for which the IC50 is 317 nM.
In the case of `CNC(=O)c1ccc(-c2cc(OC3CCOCC3)c3c(C)n[nH]c3c2)cc1N1CCN(Cc2ccccc2)C(=O)C1` [Example 159, 2-(4-benzyl-3-oxopiperazin-1-yl)-N-methyl-4-[3-methyl-4-(tetrahydro-2H-pyran-4-yloxy)-1H-indazol-6-yl]benzamide] it was 21.5 nM.
In the case of `CNC(=O)c1ccc(-c2cc(OC3CCOCC3)c3c(C)n[nH]c3c2)cc1N1CCN(C(=O)CC(C)C)CC1` [Example 160, N-methyl-2-[4-(3-methylbutanoyl)piperazin-1-yl]-4-[3-methyl-4-(tetrahydro-2H-pyran-4-yloxy)-1H-indazol-6-yl]benzamide] it was 59.3 nM.
The molecule `Cc1n[nH]c2cc(-c3cncc(N4CCN(c5ccccc5)CC4)c3)cc(OC3CCCC3)c12` [Example 161, 4-(cyclopentyloxy)-3-methyl-6-[5-(4-phenylpiperazin-1-yl)pyridin-3-yl]-1H-indazole] displayed an IC50 of 73.7 nM.
In the case of `Cc1n[nH]c2cc(-c3ccc(NS(C)(=O)=O)c(N4CCN(C(=O)OC(C)(C)C)CC4)c3)cc(OC3CCOCC3)c12` [Example 162, tert-butyl 4-{2-[(methylsulfonyl)amino]-5-[3-methyl-4-(tetrahydro-2H-pyran-4-yloxy)-1H-indazol-6-yl]phenyl}piperazine-1-carboxylate] it was 28.1 nM; in that of `CNC(=O)c1ccc(-c2cc(OC3CCOCC3)c3c(C)n[nH]c3c2)cc1N1CCN(C(=O)OC(C)C(F)(F)F)CC1` (stereo not shown) [Example 163, 1,1,1-trifluoropropan-2-yl 4-{2-(methylcarbamoyl)-5-[3-methyl-4-(tetrahydro-2H-pyran-4-yloxy)-1H-indazol-6-yl]phenyl}piperazine-1-carboxylate], 171 nM.
`CNC(=O)c1ccc(-c2cc(OC3CCOCC3)c3c(C)n[nH]c3c2)cc1N1CCN(C(=O)CC2CC2)CC1` [Example 164, 2-[4-(cyclopropylacetyl)piperazin-1-yl]-N-methyl-4-[3-methyl-4-(tetrahydro-2H-pyran-4-yloxy)-1H-indazol-6-yl]benzamide] registered an IC50 of 8.62 nM.
Take `CNC(=O)c1ccc(-c2cc(OC3CCOCC3)c3c(C)n[nH]c3c2)cc1N1CCN(c2ncc(F)cn2)CC1` [Example 165, 2-[4-(5-fluoropyrimidin-2-yl)piperazin-1-yl]-N-methyl-4-[3-methyl-4-(tetrahydro-2H-pyran-4-yloxy)-1H-indazol-6-yl]benzamide]: the IC50 turned out to be 1040 nM.
Then `Cc1n[nH]c2cc(-c3ccc(C(N)=O)c(N4CC5(CN(CC(F)(F)F)C5)C4)c3)cc(OC3CCOCC3)c12` [Example 166, 4-[3-methyl-4-(tetrahydro-2H-pyran-4-yloxy)-1H-indazol-6-yl]-2-[6-(2,2,2-trifluoroethyl)-2,6-diazaspiro[3.3]hept-2-yl]benzamide], with 1040 nM; and `CNC(=O)c1ccc(-c2cc(OC3CCOCC3)c3c(N)n[nH]c3c2)cc1N1CCN(CC(F)(F)C(F)F)CC1` [Example 167, 4-[3-amino-4-(tetrahydro-2H-pyran-4-yloxy)-1H-indazol-6-yl]-N-methyl-2-[4-(2,2,3,3-tetrafluoropropyl)piperazin-1-yl]benzamide], with 11.5 nM; and `CNC(=O)c1ccc(-c2cc(OC3CCOCC3)c3c(N)n[nH]c3c2)cc1N1CCN(CCC(F)(F)F)CC1` [Example 168, 4-[3-amino-4-(tetrahydro-2H-pyran-4-yloxy)-1H-indazol-6-yl]-N-methyl-2-[4-(3,3,3-trifluoropropyl)piperazin-1-yl]benzamide], with 11.6 nM.
Regarding `CNC(=O)c1ccc(-c2cc(OC3CCOCC3)c3c(N)n[nH]c3c2)cc1N1CCN(CC(F)F)CC1` [Example 169, 4-[3-amino-4-(tetrahydro-2H-pyran-4-yloxy)-1H-indazol-6-yl]-2-[4-(2,2-difluoroethyl)piperazin-1-yl]-N-methylbenzamide], the half-inhibitory concentration (IC50) was determined as 38 nM.
Molecule `CNC(=O)c1ccc(-c2cc(OC3CCOCC3)c3c(N)n[nH]c3c2)cc1N1CCN(CC(F)(F)C(F)(F)F)CC1` [Example 170, 4-[3-amino-4-(tetrahydro-2H-pyran-4-yloxy)-1H-indazol-6-yl]-N-methyl-2-[4-(2,2,3,3,3-pentafluoropropyl)piperazin-1-yl]benzamide] yielded an IC50 of 17.8 nM.
Then `CNC(=O)c1ccc(-c2cc(OC3CCOCC3)c3c(N)n[nH]c3c2)cc1N1CCN(CC2CC(F)(F)C2)CC1` [Example 171, 4-[3-amino-4-(tetrahydro-2H-pyran-4-yloxy)-1H-indazol-6-yl]-2-{4-[(3,3-difluorocyclobutyl)methyl]piperazin-1-yl}-N-methylbenzamide], with 5.5 nM; and `CNC(=O)c1ccc(-c2cc(OC3CCOCC3)c3c(N)n[nH]c3c2)cc1N1CCN(CC(C)(F)F)CC1` [Example 172, 4-[3-amino-4-(tetrahydro-2H-pyran-4-yloxy)-1H-indazol-6-yl]-2-[4-(2,2-difluoropropyl)piperazin-1-yl]-N-methylbenzamide], with 22 nM; and `CNC(=O)c1ccc(-c2cc(OC3CCOCC3)c3c(N)n[nH]c3c2)cc1N1CCN(CC2CC2(F)F)CC1` (stereo not shown) [Example 173, 4-[3-amino-4-(tetrahydro-2H-pyran-4-yloxy)-1H-indazol-6-yl]-2-{4-[(2,2-difluorocyclopropyl)methyl]piperazin-1-yl}-N-methylbenzamide], with 16.4 nM.
